# Source: US6706740B2, “Fungicidal heterocyclic aromatic amides and their compositions, methods of use and preparation” (Dow AgroSciences LLC, priority 1999, dated 2004)
# Like-named read-outs stand apart in the source and are kept apart here.
# What was measured:
# [1] = tested on: Phytophthora infestans (PHYTIN); assay: microbe, parasite or virus in culture; format: cell-based; settings: Phytophthora infestans, read-out: PHYTIN in vitro Growth Inhibition
# [2] = tested on: Magnaporthe grisea (Pyricularia oryzae—PYRIOR); assay: microbe, parasite or virus in culture; format: cell-based; settings: Pyricularia oryzae, read-out: PYRIOR in vitro Growth Inhibition
# Ustilago maydis (USTIMA) = assay: microbe, parasite or virus in culture; format: cell-based; settings: Mycosarcoma maydis, read-out: USTIMA in vitro Growth Inhibition
# [3] = tested on: Stagonospora nodorum (Leptosphaeria nodorum—LEPTNO); assay: In vitro fungal growth inhibition, Stagonospora nodorum (LEPTNO); format: cell-based; settings: Leptosphaeria, read-out: LEPTNO in vitro Growth Inhibition
# [4] = tested on: Phytophthora infestans—PHYTIN; assay: whole plant or invertebrate; format: in vivo; settings: Phytophthora, in Solanum lycopersicum, 24 h, read-out: PHYTIN in vivo 1 Day Protectant
# [5] = tested on: Puccinia recondita—PUCCRT; assay: Brown Rust of Wheat, in vivo whole plant, 24 Hour Protectant; settings: for pest or weed control at 100 ppm: Puccinia, read-out: PUCCRT in vivo 1 Day Protectant
# Erysiphe graminis—ERYSGT = assay: Powdery Mildew of Wheat, in vivo whole plant, 24 Hour Protectant; settings: for pest or weed control at 100 ppm: Erysiphe, read-out: ERYSGT in vivo 1 Day Protectant
# Septoria tritici—SEPTTR = assay: Leaf Blotch of Wheat, in vivo whole plant, 24 Hour Protectant; settings: for pest or weed control at 100 ppm: Zymoseptoria tritici, 24 h, read-out: SEPTTR in vivo 1 Day Protectant
# [6] = tested on: Leptosphaeria nodorum—LEPTNO; assay: Glume Blotch of Wheat, in vivo whole plant, 24 Hour Protectant; settings: for pest or weed control at 100 ppm: Leptosphaeria, read-out: LEPTNO in vivo 1 Day Protectant
# [7] = tested on: Rhizoctonia solani (RHIZSO); assay: microbe, parasite or virus in culture; format: cell-based; settings: Rhizoctonia solani, read-out: RHIZSO in vitro Growth Inhibition
# [8] = tested on: Mycosphaerella graminicola (Septoria tritici—SEPTTR); assay: In vitro fungal growth inhibition, Mycosphaerella graminicola (SEPTTR); format: cell-based; settings: Zymoseptoria tritici, read-out: SEPTTR in vitro Growth Inhibition
# [9] = 100 ppm spray, wheat, 24 hour protectant, control of fungal infection vs untreated plants
# [10] = 100 ppm spray, 24 hour protectant, wheat, control of fungal infection vs untreated plants
# [11] = wheat plants sprayed at 100 ppm, inoculated after 24 hours, control of fungal infection vs untreated plants
# [12] = 100 ppm spray, wheat, 24 hour protectant, % control of fungal infection vs untreated plants
Structure (SMILES),inhibition at 25 ppm [1] [%],inhibition at 25 ppm [2] [%],inhibition at 25 ppm (Ustilago maydis (USTIMA)) [%],inhibition at 25 ppm ([3]; 25 ppm in growth medium) [%],pest or weed control at 100 ppm [4] [%],"pest or weed control at 100 ppm [5, 9] [%]",pest or weed control at 100 ppm (Erysiphe graminis—ERYSGT; [9]) [%],pest or weed control at 100 ppm (Septoria tritici—SEPTTR; [9]) [%],inhibition at 25 ppm [7] [%],inhibition at 25 ppm ([8]; 25 ppm in growth medium) [%],"pest or weed control at 100 ppm [6, 9] [%]",further results
COc1ccnc(C(=O)Nc2ccc(OCc3ccc(C(F)(F)F)cc3)cc2)c1O [Compound 448],< 80,< 80,> 80,< 80,< 25,25 to 74,< 25,25 to 74,< 80,< 80,,"LEPTNO in vivo 1 Day Protectant [6, 9]: + +"
COc1ccnc(C(=O)NCC#Cc2ccccc2)c1O [Compound 240],< 80,< 80,< 80,< 80,< 25,,,,< 80,< 80,,"pest or weed control at 100 ppm [5, 10]: < 25%; pest or weed control at 100 ppm (Erysiphe graminis—ERYSGT; [10]): < 25%; SEPTTR in vivo 1 Day Protectant (Septoria tritici—SEPTTR; [10]): + +; pest or weed control at 100 ppm [6, 10]: 25 to 74%"
COc1ccnc(C(=O)N[C@H]2C[C@@H](O[Si](C)(C)C(C)(C)C)O[C@@H](C)[C@@H]2OCc2ccccc2)c1O [Compound 328],> 80,< 80,< 80,,< 25,< 25,< 25,25 to 74,< 80,,25 to 74,inhibition at 25 ppm [3]: < 80%; inhibition at 25 ppm [8]: < 80%
COc1ccnc(C(=O)N[C@@H]2CC3CC2[C@H]2COC[C@@H]32)c1O (stereo partly drawn) [Compound 302],< 80,< 80,< 80,< 80,< 25,,,,< 80,< 80,,"pest or weed control at 100 ppm [5, 10]: < 25%; pest or weed control at 100 ppm (Erysiphe graminis—ERYSGT; [10]): < 25%; pest or weed control at 100 ppm (Septoria tritici—SEPTTR; [10]): 25 to 74%; pest or weed control at 100 ppm [6, 10]: 25 to 74%"
COc1ccnc(C(=O)NC2CC(C)(C)CC(C)(C3CC3)C2)c1OC(C)=O (stereo not drawn) [Compound 573],< 80,< 80,< 80,,< 25,,,,< 80,,,"inhibition at 25 ppm ([3]; 25 ppm in the growth medium): > 80%; PUCCRT in vivo 1 Day Protectant [5, 11]: + +; pest or weed control at 100 ppm (Erysiphe graminis—ERYSGT; [11]): < 25%; pest or weed control at 100 ppm (Septoria tritici—SEPTTR; [11]): 25 to 74%; LEPTNO in vivo 1 Day Protectant [6, 11]: + +; inhibition at 25 ppm ([8]; 25 ppm in the growth medium): < 80%"
COc1ccnc(C(=O)Nc2ccc(Oc3ccc(Cl)cc3)cc2)c1O [Compound 443],< 80,< 80,< 80,> 80,< 25,25 to 74,< 25,< 25,< 80,< 80,< 25,
COc1ccnc(C(=O)NC(COC(=O)C(Cc2ccccc2)C(C)OC(=O)C(C)C)C(=O)OC(C)C)c1O (stereo not drawn) [Compound 355],< 80,< 80,< 80,< 80,< 25,25 to 74,< 25,< 25,< 80,< 80,< 25,
COc1ccnc(C(=O)N[C@H]2COC(=O)[C@H](Cc3ccccc3)[C@@H](OC(=O)CC(C)C)[C@H](C)OC2=O)c1OC(C)=O [Compound 702],< 80,< 80,< 80,> 80,< 25,,,,< 80,< 80,,"PUCCRT in vivo 1 Day Protectant [5, 12]: + +; pest or weed control at 100 ppm (Erysiphe graminis—ERYSGT; [12]): < 25%; SEPTTR in vivo 1 Day Protectant (Septoria tritici—SEPTTR; [12]): + +; LEPTNO in vivo 1 Day Protectant [6, 12]: + +"
COc1ccnc(C(=O)N[C@H]2COC(=O)[C@H](Cc3ccccc3)[C@@H](OC(C)=O)[C@H](C)OC2=O)c1OC(C)=O [Compound 596],> 80,> 80,< 80,< 80,< 25,,,,< 80,< 80,,"PUCCRT in vivo 1 Day Protectant [5, 12]: + +; pest or weed control at 100 ppm (Erysiphe graminis—ERYSGT; [12]): < 25%; pest or weed control at 100 ppm (Septoria tritici—SEPTTR; [12]): 25 to 74%; LEPTNO in vivo 1 Day Protectant [6, 12]: + +"
C=C(C)C(=O)O[C@H]1[C@H](C)OC(=O)[C@@H](NC(=O)c2nccc(OC)c2O)COC(=O)[C@@H]1Cc1ccccc1 [Compound 386],< 80,< 80,< 80,> 80,< 25,25 to 74,25 to 74,25 to 74,< 80,> 80,,"LEPTNO in vivo 1 Day Protectant [6, 9]: + +"
CC(=O)Oc1cccnc1C(=O)Nc1ccc(Oc2cccc(C(F)(F)F)c2)cc1 [Compound 570],< 80,> 80,< 80,,< 25,,,,< 80,,,"inhibition at 25 ppm ([3]; 25 ppm in the growth medium): < 80%; pest or weed control at 100 ppm [5, 11]: < 25%; ERYSGT in vivo 1 Day Protectant (Erysiphe graminis—ERYSGT; [11]): + +; pest or weed control at 100 ppm (Septoria tritici—SEPTTR; [11]): 25 to 74%; pest or weed control at 100 ppm [6, 11]: 25 to 74%; inhibition at 25 ppm ([8]; 25 ppm in the growth medium): < 80%"
COc1ccnc(C(=O)Nc2cccc(Oc3cccc(C)c3)c2)c1O [Compound 413],< 80,> 80,< 80,> 80,25 to 74,25 to 74,< 25,< 25,< 80,> 80,< 25,
COc1ccnc(C(=O)NC(COC(=O)CC(C)OC(=O)C(C)C)C(=O)OC(C)C)c1O (stereo not drawn) [Compound 352],< 80,< 80,< 80,< 80,< 25,25 to 74,< 25,< 25,< 80,< 80,< 25,
COc1ccnc(C(=O)N[C@H]2CO[C@@](C)(C(C)CC3=C(C)CCCC3(C)C)OC2)c1O (stereo partly drawn) [Compound 318],> 80,< 80,< 80,> 80,25 to 74,,,,> 80,> 80,,"pest or weed control at 100 ppm [5, 10]: 25 to 74%; pest or weed control at 100 ppm (Erysiphe graminis—ERYSGT; [10]): < 25%; pest or weed control at 100 ppm (Septoria tritici—SEPTTR; [10]): 25 to 74%; pest or weed control at 100 ppm [6, 10]: 25 to 74%"
CC(NC(=O)c1ccncc1O)c1ccc(Oc2ccccc2)cc1 (stereo not drawn) [Compound 512],< 80,< 80,< 80,,25 to 74,,,,< 80,,,"inhibition at 25 ppm ([3]; 25 ppm in the growth medium): < 80%; pest or weed control at 100 ppm [5, 11]: < 25%; pest or weed control at 100 ppm (Erysiphe graminis—ERYSGT; [11]): < 25%; pest or weed control at 100 ppm (Septoria tritici—SEPTTR; [11]): < 25%; pest or weed control at 100 ppm [6, 11]: < 25%; inhibition at 25 ppm ([8]; 25 ppm in the growth medium): < 80%"
